Measurements taken from patent US12662479B2 (Foghorn Therapeutics Inc., priority 2020, dated 2026).

Key:
HiBit-BRM fusion protein = target: T1, HiBit-BRM fusion protein (Homo sapiens, UniProt P51531); test: HiBiT-BRM cell-based degradation assay (Nano-Glo HiBiT Lytic Detection, 24 h); conditions: HeLa cells expressing HiBiT-BRM; for DC50: read-out: BRM HiBit Degradation IC50; for BRM HiBit Degradation Maximum measured: top dose 30 μM
T1 construct: expressed in transfected cells
Description: (§1) Procedure: A stable HeLa cell line expressing HiBiT-BRM was generated. On day 0, 5000 cells were seeded in 40 μL of media into each well of 384-well cell culture plates. On day 1, cells were treated with 120 nL DMSO or 120 nL of 3-fold serially DMSO-diluted compounds (10 points in duplicate with 30 μM as final top dose). Subsequently plates were incubated for 24 h in a standard tissue culture incubator and equilibrated at room temperature for 15 minutes. Nano-Glo HiBiT Lytic Detection System (Promega N3050) reagent was freshly prepared and 20 ul was added to each well. Upon addition of this LgBit-containing reagent, the HiBiT and LgBiT proteins associate to form the luminescent NanoBiT luciferase. The plates were shaken for 10 minutes at room temperature and the bioluminescence read using an EnVision plate reader (PerkinElmer).
(§2) The degradation % was calculated using the following formula: % degradation=100%−100%×(LumSample−LumLC)/(LumHC−LumLC). DMSO treated cells are employed as High Control (HC) and 2 μM of a known BRM/BRG1 degrader standard treated cells are employed as Low Control (LC).

[1] = target: T2, HiBit-BRG1 fusion protein (Homo sapiens, UniProt P51532); test: HiBiT-BRG1 cell-based degradation assay (Nano-Glo HiBiT Lytic Detection, 24 h); conditions: HeLa cells expressing HiBit-BRG1 and LgBit; for DC50: read-out: BRG1 HiBit Degradation IC50; for Dmax: HeLa, top dose 30 μM, read-out: BRG1 HiBit Degradation Maximum measured
T2 construct: expressed in transfected cells
T2 sequence (P51532 whole entry, the tested form may be a part): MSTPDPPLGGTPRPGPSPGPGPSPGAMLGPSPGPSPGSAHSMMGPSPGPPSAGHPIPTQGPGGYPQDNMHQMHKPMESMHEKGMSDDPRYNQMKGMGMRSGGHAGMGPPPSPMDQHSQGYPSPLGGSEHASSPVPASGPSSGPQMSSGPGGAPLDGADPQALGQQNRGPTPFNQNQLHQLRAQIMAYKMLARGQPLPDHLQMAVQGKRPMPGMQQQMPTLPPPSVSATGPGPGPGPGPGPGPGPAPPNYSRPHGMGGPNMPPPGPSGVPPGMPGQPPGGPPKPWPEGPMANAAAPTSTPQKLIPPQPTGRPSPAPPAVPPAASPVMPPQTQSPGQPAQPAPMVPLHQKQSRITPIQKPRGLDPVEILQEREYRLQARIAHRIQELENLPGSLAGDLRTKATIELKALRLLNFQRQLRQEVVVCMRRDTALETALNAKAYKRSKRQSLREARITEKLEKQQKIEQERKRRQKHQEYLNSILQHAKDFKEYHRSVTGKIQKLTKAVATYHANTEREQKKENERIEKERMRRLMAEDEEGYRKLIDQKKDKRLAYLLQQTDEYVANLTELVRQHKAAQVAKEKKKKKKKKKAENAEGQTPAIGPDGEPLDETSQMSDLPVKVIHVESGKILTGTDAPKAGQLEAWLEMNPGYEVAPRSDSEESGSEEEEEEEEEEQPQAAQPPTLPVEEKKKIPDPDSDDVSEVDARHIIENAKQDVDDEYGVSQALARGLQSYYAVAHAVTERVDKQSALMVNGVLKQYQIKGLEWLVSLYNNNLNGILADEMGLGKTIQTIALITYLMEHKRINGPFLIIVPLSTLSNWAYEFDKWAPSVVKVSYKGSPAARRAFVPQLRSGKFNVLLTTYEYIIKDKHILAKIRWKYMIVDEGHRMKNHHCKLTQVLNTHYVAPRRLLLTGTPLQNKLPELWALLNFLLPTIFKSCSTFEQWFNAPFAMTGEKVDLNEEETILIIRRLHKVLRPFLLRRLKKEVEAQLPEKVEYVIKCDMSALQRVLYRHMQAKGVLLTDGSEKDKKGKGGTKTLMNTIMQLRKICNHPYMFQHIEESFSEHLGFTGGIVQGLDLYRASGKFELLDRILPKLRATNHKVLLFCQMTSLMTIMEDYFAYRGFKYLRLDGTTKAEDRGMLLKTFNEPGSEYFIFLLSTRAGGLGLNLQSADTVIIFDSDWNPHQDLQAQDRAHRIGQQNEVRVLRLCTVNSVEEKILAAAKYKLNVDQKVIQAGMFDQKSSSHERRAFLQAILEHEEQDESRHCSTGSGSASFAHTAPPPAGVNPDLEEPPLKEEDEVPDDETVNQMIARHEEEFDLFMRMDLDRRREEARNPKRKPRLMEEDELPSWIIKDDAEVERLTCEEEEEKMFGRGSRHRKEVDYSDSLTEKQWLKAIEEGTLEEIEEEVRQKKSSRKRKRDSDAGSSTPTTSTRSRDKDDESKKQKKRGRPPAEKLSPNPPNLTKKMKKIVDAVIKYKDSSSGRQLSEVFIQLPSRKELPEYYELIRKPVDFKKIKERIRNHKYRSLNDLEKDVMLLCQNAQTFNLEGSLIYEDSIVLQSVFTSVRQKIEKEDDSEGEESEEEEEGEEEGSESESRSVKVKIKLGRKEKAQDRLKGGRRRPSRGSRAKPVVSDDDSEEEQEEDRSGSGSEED
Description: as §1, with “On day 1, cells were treated with 120 nL DMSO or 120 nL of 3-fold serially DMSO-diluted compounds (10 points in duplicate with 30 μM as final top dose). Subsequently plates were incubated for 24 h in a standard tissue culture incubator and equilibrated at room temperature for 15 minutes.” left out
For measurement of BRG1 degradation, a stable HeLa cell line expressing HiBit-BRG1 and LgBit was generated. The same protocol as above was then followed.
as §2

T1 sequence (P51531 whole entry, the tested form may be a part): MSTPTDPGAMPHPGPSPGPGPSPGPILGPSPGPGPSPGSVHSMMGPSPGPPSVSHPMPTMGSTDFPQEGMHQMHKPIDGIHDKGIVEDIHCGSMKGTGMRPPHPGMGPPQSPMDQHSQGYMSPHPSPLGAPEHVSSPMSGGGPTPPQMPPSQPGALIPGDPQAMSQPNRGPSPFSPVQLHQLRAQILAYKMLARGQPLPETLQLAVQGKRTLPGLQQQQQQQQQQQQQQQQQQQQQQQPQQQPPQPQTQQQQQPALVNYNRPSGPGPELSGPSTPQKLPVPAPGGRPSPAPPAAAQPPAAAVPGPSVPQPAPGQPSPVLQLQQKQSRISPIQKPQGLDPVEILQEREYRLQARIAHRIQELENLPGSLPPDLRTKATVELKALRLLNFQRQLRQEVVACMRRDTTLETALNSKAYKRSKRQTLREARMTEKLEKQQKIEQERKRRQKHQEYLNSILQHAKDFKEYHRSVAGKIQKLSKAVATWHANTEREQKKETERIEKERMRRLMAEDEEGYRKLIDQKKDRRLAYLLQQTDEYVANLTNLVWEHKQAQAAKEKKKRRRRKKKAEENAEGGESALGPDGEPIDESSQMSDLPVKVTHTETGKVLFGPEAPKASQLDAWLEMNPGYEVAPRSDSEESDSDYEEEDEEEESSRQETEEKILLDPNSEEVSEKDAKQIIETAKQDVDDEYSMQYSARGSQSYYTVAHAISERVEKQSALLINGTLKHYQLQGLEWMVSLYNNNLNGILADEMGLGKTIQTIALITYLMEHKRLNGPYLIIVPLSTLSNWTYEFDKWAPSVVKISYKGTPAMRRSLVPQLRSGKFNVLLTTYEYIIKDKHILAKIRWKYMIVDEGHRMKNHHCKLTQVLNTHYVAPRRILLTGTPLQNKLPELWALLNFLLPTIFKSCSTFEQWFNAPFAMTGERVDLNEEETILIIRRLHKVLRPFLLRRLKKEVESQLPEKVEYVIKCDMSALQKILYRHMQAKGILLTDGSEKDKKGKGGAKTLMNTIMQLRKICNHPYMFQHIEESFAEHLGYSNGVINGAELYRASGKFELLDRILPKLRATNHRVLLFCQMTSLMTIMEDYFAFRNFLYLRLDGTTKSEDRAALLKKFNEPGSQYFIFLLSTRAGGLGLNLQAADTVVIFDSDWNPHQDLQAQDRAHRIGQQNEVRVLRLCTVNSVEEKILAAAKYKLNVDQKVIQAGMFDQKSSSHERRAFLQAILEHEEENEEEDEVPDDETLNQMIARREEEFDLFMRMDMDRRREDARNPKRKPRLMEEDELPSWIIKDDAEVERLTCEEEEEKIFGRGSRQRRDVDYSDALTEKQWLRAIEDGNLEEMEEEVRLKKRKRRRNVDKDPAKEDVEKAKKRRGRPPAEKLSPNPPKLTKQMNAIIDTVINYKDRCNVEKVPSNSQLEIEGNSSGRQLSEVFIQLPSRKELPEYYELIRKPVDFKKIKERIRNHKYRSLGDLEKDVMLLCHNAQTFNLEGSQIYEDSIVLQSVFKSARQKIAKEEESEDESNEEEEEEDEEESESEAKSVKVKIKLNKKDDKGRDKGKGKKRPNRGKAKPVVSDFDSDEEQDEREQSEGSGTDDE

SMILES | DC50 (HiBit-BRM fusion protein) | BRM HiBit Degradation Maximum measured (HiBit-BRM fusion protein) | DC50 [1] | Dmax [1]
CN(CCNC(=O)CCCOCC[C@H](NC(=O)c1ccn(S(C)(=O)=O)c1)C(=O)Nc1nc(-c2ccccc2)cs1)CCNc1cccc2c1C(=O)N(C1CCC(=O)NC1=O)C2=O (stereo partly drawn) [Compound 276, (2S)-4-[3-([2-[(2-[[2-(2,6-dioxopiperidin-3-yl)-1,3-dioxoisoindol-4-yl]amino]ethyl)(methyl)amino]ethyl]carbamoyl)propoxy]-2-[(1-methanesulfonylpyrrol-3-yl)formamido]-N-(4-phenyl-1,3-thiazol-2-yl)butanamide; formic acid] | > 10 µM | C (‘C’ = Maximum degradation <50%) | > 10 µM | < 50%
CC(C)(C(=O)NCCOCCOCCNc1cccc2c1C(=O)N(C1CCC(=O)NC1=O)C2=O)n1ccc(-c2cccc(-c3csc(NC(=O)CNC(=O)c4ccn(S(C)(=O)=O)c4)n3)c2)n1 (stereo not shown) [Compound 6, N-(2-((4-(3-(1-(1-((2-(2-(2-((2-(2,6-dioxopiperidin-3-yl)-1,3-dioxoisoindolin-4-yl)amino)ethoxy)ethoxy)ethyl)amino)-2-methyl-1-oxopropan-2-yl)-1H-pyrazol-3-yl)phenyl)thiazol-2-yl)amino)-2-oxoethyl)-1-(methylsulfonyl)-1H-pyrrole-3-carboxamide] | > 10 µM | C (‘C’ = Maximum degradation <50%) | > 10 µM | < 50%
CS(=O)(=O)n1ccc(C(=O)N[C@@H](COCCCC(=O)NCCOc2ccc3c(c2)C(=O)N(C2CCC(=O)NC2=O)C3=O)C(=O)Nc2nc(-c3ccccc3)cs2)c1 (stereo partly shown) [Compound 228] | > 10 µM | C (‘C’ = Maximum degradation <50%) | > 10 µM | < 50%
CS(=O)(=O)n1ccc(C(=O)NCC(=O)Nc2nc(-c3cccc(-c4cccc(CNC(=O)CCOCCOCCOc5ccc6c(c5)C(=O)N(C5CCC(=O)NC5=O)C6=O)c4)c3)cs2)c1 (stereo not shown) [Compound 55, N-[2-[[4-[3-[3-[[3-[2-[2-[2-(2,6-dioxo-3-piperidyl)-1,3-dioxo-isoindolin-5-yl]oxyethoxy]ethoxy]propanoylamino]-methyl]phenyl]phenyl]thiazol-2-yl]amino]-2-oxo-ethyl]-1-methylsulfonyl-pyrrole-3-carboxamide] | 0.1 to 1 µM | B (‘B’ = Maximum degradation ≥50% and ≤75%) | 0.1 to 1 µM | 50 to 75%
Cc1ncsc1-c1ccc(CNC(=O)[C@@H]2C[C@@H](O)CN2C(=O)[C@@H](NC(=O)COCCOCC(=O)N2CCN(c3cc(-c4cccc(-c5csc(NC(=O)CNC(=O)c6ccn(S(C)(=O)=O)c6)n5)c4)ccn3)CC2)C(C)(C)C)cc1 [Compound 75, N-(2-((4-(3-(2-(4-(2-(2-(2-(((S)-1-((2S,4R)-4-hydroxy-2-((4-(4-methylthiazol-5-yl)benzyl)carbamoyl)pyrrolidin-1-yl)-3,3-dimethyl-1-oxobutan-2-yl)amino)-2-oxoethoxy)ethoxy)acetyl)piperazin-1-yl)pyridin-4-yl)phenyl)thiazol-2-yl)amino)-2-oxoethyl)-1-(methylsulfonyl)-1H-pyrrole-3-carboxamide] | 0.1 to 1 µM | B (‘B’ = Maximum degradation ≥50% and ≤75%) | 0.1 to 1 µM | > 75%
Cc1c(C(=O)NCC(=O)Nc2nc(-c3cccc(-c4ccnc(N(C)CC(=O)N5CCC(C6CCN(C(=O)COc7cccc8c7C(=O)N(C7CCC(=O)NC7=O)C8=O)CC6)CC5)c4)c3)cs2)cn(S(=O)(=O)C(C)C)c1C (stereo not shown) [Compound 116, N-(2-((4-(3-(2-((2-(1′-(2-((2-(2,6-dioxopiperidin-3-yl)-1,3-dioxoisoindolin-4-yl)oxy)acetyl)-[4,4′-bipiperidin]-1-yl)-2-oxoethyl)(methyl)amino)pyridin-4-yl)phenyl)thiazol-2-yl)amino)-2-oxoethyl)-1-(isopropylsulfonyl)-4,5-dimethyl-1H-pyrrole-3-carboxamide] | > 10 µM | C (‘C’ = Maximum degradation <50%) | > 10 µM | < 50%
CS(=O)(=O)n1ccc(C(=O)NCC(=O)Nc2nc(-c3cccc(-c4ccnc(N5CCN(C(=O)CCOCCOCCNc6ccc7c(c6)C(=O)N(C6CCC(=O)NC6=O)C7=O)CC5)c4)c3)cs2)c1 (stereo not shown) [Compound 40, N-(2-((4-(3-(2-(4-(3-(2-(2-((2-(2,6-dioxopiperidin-3-yl)-1,3-dioxoisoindolin-5-yl)amino)ethoxy)ethoxy)propanoyl)piperazin-1-yl)pyridin-4-yl)phenyl)thiazol-2-yl)amino)-2-oxoethyl)-1-(methylsulfonyl)-1H-pyrrole-3-carboxamide] | < 0.1 µM | A (‘A’ = Maximum degradation >75%) | < 0.1 µM | > 75%
CS(=O)(=O)n1ccc(C(=O)NCC(=O)Nc2nc(-c3cccc(-c4ccnc(OCCNC(=O)CCOCCOCCOc5ccc6c(c5)C(=O)N(C5CCC(=O)NC5=O)C6=O)c4)c3)cs2)c1 (stereo not shown) [Compound 38, N-(2-((4-(3-(2-(2-(3-(2-(2-((2-(2,6-dioxopiperidin-3-yl)-1,3-dioxoisoindolin-5-yl)oxy)ethoxy)ethoxy)propanamido)ethoxy)pyridin-4-yl)phenyl)thiazol-2-yl)amino)-2-oxoethyl)-1-(methylsulfonyl)-1H-pyrrole-3-carboxamide] | > 10 µM | C (‘C’ = Maximum degradation <50%) | 0.1 to 1 µM | > 75%
CS(=O)(=O)n1ccc(C(=O)N[C@@H](CCOCCCC(=O)NCCCC#Cc2cccc3c2C(=O)N(C2CCC(=O)NC2=O)C3=O)C(=O)Nc2nc(-c3ccccc3)cs2)c1 (stereo partly drawn) [Compound 272, (2S)-4-[3-([5-[2-(2,6-dioxopiperidin-3-yl)-1,3-dioxoisoindol-4-yl]pent-4-yn-1-yl]carbamoyl)propoxy]-2-[(1-methanesulfonylpyrrol-3-yl)formamido]-N-(4-phenyl-1,3-thiazol-2-yl)butanamide] | > 10 µM | C (‘C’ = Maximum degradation <50%) | > 10 µM | < 50%
Cc1ncsc1-c1ccc(CNC(=O)[C@@H]2C[C@@H](O)CN2C(=O)[C@@H](NC(=O)CN2CC3(CC(C(=O)NCc4cccc(-c5cccc(-c6csc(NC(=O)CNC(=O)c7ccn(S(C)(=O)=O)c7)n6)c5)c4)C3)C2)C(C)(C)C)cc1 [Compound 163, 2-([[(2S)-1-[(2S,4R)-4-hydroxy-2-([[4-(4-methyl-1,3-thiazol-5-yl)phenyl]methyl]carbamoyl)pyrrolidin-1-yl]-3,3-dimethyl-1-oxobutan-2-yl]carbamoyl]methyl)-N-[[3-(2-[2-[(1-methanesulfonylpyrrol-3-yl)formamido]acetamido]-1,3-thiazol-4-yl)-[1,1-biphenyl]-3-yl]methyl]-2-azaspiro[3.3]heptane-6-carboxamide] | 0.1 to 1 µM | B (‘B’ = Maximum degradation ≥50% and ≤75%) | > 10 µM | < 50%
CS(=O)(=O)n1ccc(C(=O)N[C@@H](COCc2ccc(C(=O)N3CCC4(CC3)CC(Oc3ccc5c(c3)C(=O)N(C3CCC(=O)NC3=O)C5=O)C4)cc2)C(=O)Nc2nc(-c3ccccc3)cs2)c1 (stereo partly drawn) [Compound 199, (2S)-3-[[4-(2-[[2-(2,6-dioxopiperidin-3-yl)-1,3-dioxoisoindol-5-yl]oxy]-7-azaspiro[3.5]nonane-7-carbonyl)phenyl]methoxy]-2-[(1-methanesulfonylpyrrol-3-yl)formamido]-N-(4-phenyl-1,3-thiazol-2-yl)propanamide] | > 10 µM | C (‘C’ = Maximum degradation <50%) | > 10 µM | < 50%
CC(C)(C(=O)NCCCCCNc1cccc2c1C(=O)N(C1CCC(=O)NC1=O)C2=O)n1ccc(-c2cccc(-c3csc(NC(=O)CNC(=O)c4ccn(S(C)(=O)=O)c4)n3)c2)n1 (stereo not shown) [Compound 7, N-[2-[[4-[3-[1-[2-[5-[[2-(2,6-dioxo-3-piperidyl)-1,3-dioxo-isoindolin-4-yl]amino]pentylamino]-1,1-dimethyl-2-oxo-ethyl]pyrazol-3-yl]phenyl]thiazol-2-yl]amino]-2-oxo-ethyl]-1-methylsulfonyl-pyrrole-3-carboxamide] | > 10 µM | C (‘C’ = Maximum degradation <50%) | > 10 µM | < 50%
CN(CC(=O)NCCCCNc1ccc2c(c1)C(=O)N(C1CCC(=O)NC1=O)C2=O)c1cc(-c2cccc(-c3csc(NC(=O)CNC(=O)c4ccn(S(C)(=O)=O)c4)n3)c2)ccn1 (stereo not shown) [Compound 67] | > 10 µM | C (‘C’ = Maximum degradation <50%) | > 10 µM | < 50%
